Laboratory results published in PMC8691750, “Euphorbia Factor L2 ameliorates the Progression of K/BxN Serum-Induced Arthritis by Blocking TLR7 Mediated IRAK4/IKKβ/IRF5 and NF-kB Signaling Pathways” (Frontiers in Pharmacology, 2021).
Several values for one entry are separate records, joined by “and”; a condition that tells them apart may be missing. Identical values can stand only once.

System: TLR signalling pathway genes
Experiment: Toll-like Receptor Pathway PCR array of ankles
Assay type: in vivo, C57BL/6 mice
Conditions: for S40/SIA (fold change) / log2(fold change) S40/SIA: S40 group vs SIA group
Experimental: Total RNA was isolated from the right ankles using the TRIzol Reagent (Invitrogen) and purified with RNeasy Mini Kit and RNase-Free DNase Set (Qiagen). RNA quality was determined using a spectrophotometer and was reversely transcribed using Wcgene® mRNA cDNA kit. The complementary DNA was used on the Toll-like Receptor Pathway PCR Array plate (Wcgene® biotech, China).

[1] = ankles of STA mice, single-animal samples S401-S405
[2] = ankles of STA mice, single-animal samples S401-S405, relative to GAPDH
[3] = ankles, STA mice + EFL2 i.p., individual mice EFL2-1 to EFL2-4
[4] = ankles, EFL2 40 mg/kg i.p. treated STA mice versus STA mice

C=C1C(OC(=O)c2ccccc2)CC2C(C=C(C)C(=O)C3(OC(C)=O)CC(C)C(OC(=O)c4ccccc4)C3C1OC(C)=O)C2(C)C (centres unmarked) [EFL2, Euphorbia factor L2]
S40/SIA (fold change) (Tlr8 mRNA): 0.1573 | log2(fold change) S40/SIA (Tlr8 mRNA): -2.668 | S40/SIA (fold change) (Tlr9 mRNA): 0.05745 | log2(fold change) S40/SIA (Tlr9 mRNA): -4.122 | S40/SIA (fold change) (Tnf mRNA): 0.271 | log2(fold change) S40/SIA (Tnf mRNA): -1.884 | S40/SIA (fold change) (Tnfaip3 mRNA): 0.2367 | log2(fold change) S40/SIA (Tnfaip3 mRNA): -2.079 | S40/SIA (fold change) (Tollip mRNA): 0.6335 | log2(fold change) S40/SIA (Tollip mRNA): -0.6586 | S40/SIA (fold change) (Traf6 mRNA): 0.511 | log2(fold change) S40/SIA (Traf6 mRNA): -0.9687 | S40/SIA (fold change) (Ube2v1 mRNA): 0.4284 | log2(fold change) S40/SIA (Ube2v1 mRNA): -1.223 | Rel Cт [1]: 30.17 and 31.86 and 31.19 | Rela Cт [1]: 27.60 and 28.97 and 29.92 | Ripk2 Cт [1]: 31.20 and 31.97 and 31.38 | Tbk1 Cт [1]: 35.01 and 33.84 and 30.91 | Tbp Cт [1]: 32.79 and 35.04 and 35.08 and 35.26 | Ticam1 Cт [1]: 30.63 and 31.57 and 31.92 and 31.40 | Ticam2 Cт [1]: 31.98 and 32.33 and 32.54 and 32.28 | Tirap Cт [1]: 31.54 and 33.23 and 32.87 | Tlr1 Cт [1]: 31.47 and 31.48 and 31.36 and 33.05 | Tlr2 Cт [1]: 29.79 and 30.45 and 30.70 | Tlr3 Cт [1]: 31.62 and 33.01 and 32.92 and 28.89 | Tlr4 Cт [1]: 29.41 and 30.97 and 30.43 and 30.84 | Tlr5 Cт [1]: 33.11 and 33.16 and 33.55 and 34.74 | Tlr6 Cт [1]: 32.61 and 34.42 and 28.05 | Tlr7 Cт [1]: 33.17 and 34.60 and 34.75 | Tlr8 Cт [1]: 31.72 and 32.87 | Tlr9 Cт [1]: 33.32 and 37.49 | Tnf Cт [1]: 33.75 and 35.02 and 34.91 | Tnfaip3 Cт [1]: 31.00 and 33.42 and 32.49 and 32.20 | Tnfrsf1a Cт [1]: 27.55 and 28.63 and 28.76 | Tollip Cт [1]: 29.42 and 30.42 and 30.55 | Tradd Cт [1]: 31.88 and 32.32 and 32.17 and 32.45 | Traf6 Cт [1]: 30.31 and 30.69 and 31.10 and 30.54 | Ube2n Cт [1]: 27.18 and 28.39 and 28.43 and 28.55 | Ube2v1 Cт [1]: 26.90 and 29.51 and 28.01 and 27.92 | Rel fold-GAPDH [2]: 0.005407 and 0.004928 and 0.005486 | Ripk2 fold-GAPDH [2]: 0.002639 and 0.004565 and 0.002897 | Tlr2 fold-GAPDH [2]: 0.007046 and 0.01307 and 0.007729 | Tlr8 fold-GAPDH [2]: 0.001839 and 0.001034 | Tnf fold-GAPDH [2]: 0.0004529 and 0.0005528 and 0.0004186 | Tnfaip3 fold-GAPDH [2]: 0.003028 and 0.001676 and 0.002239 and 0.001643 | Tollip fold-GAPDH [2]: 0.009094 and 0.01333 and 0.008592 | Becn1 relative expression to GAPDH [3]: 0.001891 and 0.007192 and 0.004096 | Btk relative expression to GAPDH [3]: 0.001831 and 0.004678 and 0.001063 and 0.002403 | Casp8 relative expression to GAPDH [3]: 0.01358 and 0.009475 and 0.01634 | Ccl2 relative expression to GAPDH [3]: 0.00629 and 0.0002036 and 0.01529 | Ccl11 relative expression to GAPDH [3]: 0.008836 and 0.01327 and 0.005579 and 0.01036 | Cd86 relative expression to GAPDH [3]: 0.0005777 and 0.0007714 and 0.0003428 and 0.0007215 | Chuk relative expression to GAPDH [3]: 0.01087 and 0.008829 and 0.008767 | Clec4e relative expression to GAPDH [3]: 0.002249 and 0.0004993 and 4.1493e-5 and 0.0002637 | Cxcl10 relative expression to GAPDH [3]: 2.1064e-5 | Elk1 relative expression to GAPDH [3]: 0.005652 and 0.006734 and 0.002589 and 0.006009 | Fadd relative expression to GAPDH [3]: 0.0009207 and 0.00158 and 0.0009332 and 0.001977 | Hras1 relative expression to GAPDH [3]: 0.02746 and 0.02268 and 0.01475 and 0.02419 | Hspd1 relative expression to GAPDH [3]: 0.02518 and 0.003019 and 0.01313 and 0.02796 | IRF5 relative expression to GAPDH [3]: 0.004692 and 0.004033 and 0.001353 and 0.004631 | Il1b relative expression to GAPDH [3]: 0.0009616 and 0.0008 and 0.0006699 and 0.005996 | Il6 relative expression to GAPDH [3]: 0.0008677 and 0.0003997 and 0.0006556 and 0.002971 | Il10 relative expression to GAPDH [3]: 0.0002257 and 7.048e-5 and 9.932e-5 and 0.0001425 | Ilr1 relative expression to GAPDH [3]: 0.01561 and 0.01023 and 0.00774 and 0.01383 | Irak2 relative expression to GAPDH [3]: 0.004831 and 0.004355 and 0.002516 and 0.003024 | Irak3 relative expression to GAPDH [3]: 0.02176 and 0.01462 and 0.00868 and 0.01639 | Irf1 relative expression to GAPDH [3]: 0.008232 and 0.006938 | Irf3 relative expression to GAPDH [3]: 0.01143 and 0.004857 and 0.01116 | Jun relative expression to GAPDH [3]: 0.0443 and 0.03642 and 0.03036 and 0.04078 | Ly96 relative expression to GAPDH [3]: 0.008818 and 0.008037 and 0.003545 and 0.00648 | Map2k4 relative expression to GAPDH [3]: 0.009032 and 0.01171 and 0.005161 and 0.006054 | Myd88 relative expression to GAPDH [3]: 0.0089 and 0.006533 and 0.004478 and 0.009066 | Nfkb2 relative expression to GAPDH [3]: 0.008129 and 0.004372 and 0.004079 and 0.005983 | Nfkbia relative expression to GAPDH [3]: 0.03111 and 0.02056 and 0.01675 and 0.03064 | Nfkbib relative expression to GAPDH [3]: 0.005737 and 0.004539 and 0.002397 and 0.00388 | Nr2c2 relative expression to GAPDH [3]: 0.009954 and 0.006912 and 0.004742 and 0.008167 | Peli1 relative expression to GAPDH [3]: 0.02035 and 0.01296 and 0.0006428 and 0.01623 | Pglyrp1 relative expression to GAPDH [3]: 0.0004159 and 0.002383 and 0.001422 | Ptgs2 relative expression to GAPDH [3]: 0.000397 and 0.0002674 and 0.0003018 and 0.001434 | Rel relative expression to GAPDH [3]: 0.004928 and 0.005486 and 0.005407 | Ticam1 relative expression to GAPDH [3]: 0.006005 and 0.003329 and 0.002855 and 0.003921 | Tlr2 relative expression to GAPDH [3]: 0.01307 and 0.007729 and 0.007046 | Tlr3 relative expression to GAPDH [3]: 0.002217 and 0.00166 and 0.01628 and 0.001979 | Tlr4 relative expression to GAPDH [3]: 0.00914 and 0.009306 and 0.004225 and 0.009146 | Tlr5 relative expression to GAPDH [3]: 0.001998 and 0.001071 and 0.0002832 and 0.0007049 | Tlr7 relative expression to GAPDH [3]: 0.0007393 and 0.00028 and 0.0006762 | Tlr8 relative expression to GAPDH [3]: 0.001034 and 0.001839 | Tlr9 relative expression to GAPDH [3]: 9.931e-5 and 0.0006069 | Tnf relative expression to GAPDH [3]: 0.0005528 and 0.0004186 and 0.0004529 | Tnfaip3 relative expression to GAPDH [3]: 0.001676 and 0.002239 and 0.001643 and 0.003028 | Tollip relative expression to GAPDH [3]: 0.01333 and 0.008592 and 0.009094 | Traf6 relative expression to GAPDH [3]: 0.01108 and 0.005865 and 0.005186 and 0.004909 | Ube2v1 relative expression to GAPDH [3]: 0.02505 and 0.04987 and 0.0319 and 0.05212 | Becn1 fold change S40/SIA [4]: 0.2727 | Btk fold change S40/SIA [4]: 0.3155 | Casp8 fold change S40/SIA [4]: 0.2393 | Ccl2 fold change S40/SIA [4]: 0.0326 | Ccl11 fold change S40/SIA [4]: 1.864 | Cd86 fold change S40/SIA [4]: 0.1925 | Chuk fold change S40/SIA [4]: 0.3313 | Clec4e fold change S40/SIA [4]: 0.0859 | Cxcl10 fold change S40/SIA [4]: 0.002337 | Elk1 fold change S40/SIA [4]: 0.3565 | Fadd fold change S40/SIA [4]: 0.1995 | Hras1 fold change S40/SIA [4]: 0.4915 | Hspd1 fold change S40/SIA [4]: 0.2339 | IRF5 fold change S40/SIA [4]: 0.3677 | Il1b fold change S40/SIA [4]: 0.0229 | Il6 fold change S40/SIA [4]: 0.03478 | Il10 fold change S40/SIA [4]: 0.2443 | Ilr1 fold change S40/SIA [4]: 0.09556 | Irak2 fold change S40/SIA [4]: 0.4814 | Irak3 fold change S40/SIA [4]: 0.4891 | Irf1 fold change S40/SIA [4]: 0.3319 | Irf3 fold change S40/SIA [4]: 0.3241 | Jun fold change S40/SIA [4]: 0.3678 | Ly96 fold change S40/SIA [4]: 0.3878 | Map2k4 fold change S40/SIA [4]: 0.8651 | Myd88 fold change S40/SIA [4]: 0.1447 | Nfkb2 fold change S40/SIA [4]: 0.2395 | Nfkbia fold change S40/SIA [4]: 0.2445 | Nfkbib fold change S40/SIA [4]: 0.4073 | Nr2c2 fold change S40/SIA [4]: 0.5521 | Peli1 fold change S40/SIA [4]: 0.462 | Pglyrp1 fold change S40/SIA [4]: 0.2161 | Ptgs2 fold change S40/SIA [4]: 0.03786 | Rel fold change S40/SIA [4]: 0.2762 | Ticam1 fold change S40/SIA [4]: 0.59 | Tlr2 fold change S40/SIA [4]: 0.1682 | Tlr3 fold change S40/SIA [4]: 0.7859 | Tlr4 fold change S40/SIA [4]: 0.5705 | Tlr5 fold change S40/SIA [4]: 0.188 | Tlr7 fold change S40/SIA [4]: 0.09461 | Tlr8 fold change S40/SIA [4]: 0.1573 | Tlr9 fold change S40/SIA [4]: 0.05745 | Tnf fold change S40/SIA [4]: 0.271 | Tnfaip3 fold change S40/SIA [4]: 0.2367 | Tollip fold change S40/SIA [4]: 0.6335 | Traf6 fold change S40/SIA [4]: 0.511 | Ube2v1 fold change S40/SIA [4]: 0.4284
